Source: the supplement of paper PMC10733146

Tests used:
Test in all cases: viability relative to DMSO control (fraction); higher = less drug effect (more viable cells)
Details in all cases: 48 h
[1] = test system: primary ALL patient cells (S048)
Outline: (§1)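 Viability is given as CellTiter-Glo luminescence relative to the median of 16 inner DMSO wells. Fresh or cryopreserved primary mononuclear tumour cells from blood, bone marrow (both Ficoll-isolated) or processed lymph node were plated at 4 × 10^4 cells per well in 384-well plates against five pre-plated compound concentrations, one well each. Incubation lasted 48 h at 37 °C and 5% CO2 in RPMI-1640 with penicillin/streptomycin, L-glutamine and human serum.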

[2] = test system: primary AML patient cells (S002)
Outline: as §1

[3] = test system: primary AML patient cells (S012)
Outline: as §1

[4] = test system: primary AML patient cells (S017)
Outline: as §1

[5] = test system: primary AML patient cells (S019)
Outline: as §1

[6] = test system: primary AML patient cells (S025)
Outline: as §1

[7] = test system: primary AML patient cells (S037)
Outline: as §1

[8] = test system: primary AML patient cells (S056)
Outline: as §1

[9] = test system: primary AML patient cells (S071)
Outline: as §1

[10] = test system: primary AML patient cells (S072)
Outline: as §1

[11] = test system: primary AML patient cells (S079)
Outline: as §1

[12] = test system: primary AML patient cells (S085)
Outline: as §1

[13] = test system: primary AML patient cells (S089)
Outline: as §1

[14] = test system: primary AML patient cells (S091)
Outline: as §1

[15] = test system: primary BL patient cells (S005)
Outline: as §1

[16] = test system: primary CLL patient cells (S031)
Outline: as §1

[17] = test system: primary CLL patient cells (S043)
Outline: as §1

[18] = test system: primary FL patient cells (S022)
Outline: as §1

[19] = test system: primary MCL patient cells (S053)
Outline: as §1

[20] = test system: primary MCL patient cells (S068)
Outline: as §1

CCc1nc(C(N)=O)c(Nc2ccc(N3CCC(N4CCN(C)CC4)CC3)c(OC)c2)nc1NC1CCOCC1 [Gilteritinib]
viability ([1]; 0.024 µM): 0.876
viability ([1]; 0.12 µM): 0.819
viability ([1]; 0.6 µM): 0.646
viability ([1]; 3 µM): 0.717
viability ([1]; 15 µM): 0.531
viability ([2]; 0.024 µM): 1.13
viability ([2]; 0.12 µM): 1.01
viability ([2]; 0.6 µM): 0.766
viability ([2]; 3 µM): 0.592
viability ([2]; 15 µM): 0.456
viability ([3]; 0.024 µM): 0.956
viability ([3]; 0.12 µM): 0.97
viability ([3]; 0.6 µM): 1
viability ([3]; 3 µM): 0.972
viability ([3]; 15 µM): 0.928
viability ([4]; 0.024 µM): 0.987
viability ([4]; 0.12 µM): 1.09
viability ([4]; 0.6 µM): 0.606
viability ([4]; 3 µM): 0.5
viability ([4]; 15 µM): 0.47
viability ([5]; 0.024 µM): 1.12
viability ([5]; 0.12 µM): 1.04
viability ([5]; 0.6 µM): 0.76
viability ([5]; 3 µM): 0.818
viability ([5]; 15 µM): 0.771
viability ([6]; 0.024 µM): 0.888
viability ([6]; 0.12 µM): 0.862
viability ([6]; 0.6 µM): 0.751
viability ([6]; 3 µM): 0.791
viability ([6]; 15 µM): 0.485
viability ([7]; 0.024 µM): 1.06
viability ([7]; 0.12 µM): 1.02
viability ([7]; 0.6 µM): 0.875
viability ([7]; 3 µM): 0.9
viability ([7]; 15 µM): 0.738
viability ([8]; 0.024 µM): 0.404
viability ([8]; 0.12 µM): 0.385
viability ([8]; 0.6 µM): 0.339
viability ([8]; 3 µM): 0.497
viability ([8]; 15 µM): 0.644
viability ([9]; 0.024 µM): 0.564
viability ([9]; 0.12 µM): 0.457
viability ([9]; 0.6 µM): 0.465
viability ([9]; 3 µM): 0.551
viability ([9]; 15 µM): 0.878
viability ([10]; 0.024 µM): 0.983
viability ([10]; 0.12 µM): 0.882
viability ([10]; 0.6 µM): 0.54
viability ([10]; 3 µM): 0.368
viability ([10]; 15 µM): 0.285
viability ([11]; 0.024 µM): 1.26
viability ([11]; 0.12 µM): 0.887
viability ([11]; 0.6 µM): 0.735
viability ([11]; 3 µM): 0.626
viability ([11]; 15 µM): 0.469
viability ([12]; 0.024 µM): 1.02
viability ([12]; 0.12 µM): 0.98
viability ([12]; 0.6 µM): 0.741
viability ([12]; 3 µM): 0.781
viability ([12]; 15 µM): 0.756
viability ([13]; 0.024 µM): 0.956
viability ([13]; 0.12 µM): 0.552
viability ([13]; 0.6 µM): 0.512
viability ([13]; 3 µM): 0.379
viability ([13]; 15 µM): 0.311
viability ([14]; 0.024 µM): 0.859
viability ([14]; 0.12 µM): 0.734
viability ([14]; 0.6 µM): 0.238
viability ([14]; 3 µM): 0.122
viability ([14]; 15 µM): 0.0937
viability ([15]; 0.024 µM): 0.957
viability ([15]; 0.12 µM): 0.96
viability ([15]; 0.6 µM): 0.739
viability ([15]; 3 µM): 0.667
viability ([15]; 15 µM): 0.536
viability ([16]; 0.024 µM): 1.13
viability ([16]; 0.12 µM): 1
viability ([16]; 0.6 µM): 0.785
viability ([16]; 3 µM): 0.791
viability ([16]; 15 µM): 0.188
viability ([17]; 0.024 µM): 1.04
viability ([17]; 0.12 µM): 1.01
viability ([17]; 0.6 µM): 0.7
viability ([17]; 3 µM): 0.519
viability ([17]; 15 µM): 0.393
viability ([18]; 0.024 µM): 1.01
viability ([18]; 0.12 µM): 0.925
viability ([18]; 0.6 µM): 0.907
viability ([18]; 3 µM): 0.789
viability ([18]; 15 µM): 0.358
viability ([19]; 0.024 µM): 1.07
viability ([19]; 0.12 µM): 1.02
viability ([19]; 0.6 µM): 0.7
viability ([19]; 3 µM): 0.707
viability ([19]; 15 µM): 0.733
viability ([20]; 0.024 µM): 1.63
viability ([20]; 0.12 µM): 2
viability ([20]; 0.6 µM): 1.89
viability ([20]; 3 µM): 1.27
viability ([20]; 15 µM): 0.689
